Assay results from PubChem BioAssay (NCI).
Values joined by “and” are separate entries in the source; they are usually repeats but may differ in a detail not shown here. Equal entries are not always repeated.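 Growth conditions: 96-well plates. Treatment: test compound, 48 hours, 5 concentrations. Analysis: linear interpolation between bracketing concentrations; unreached endpoints set to highest concentration. The concentration for 50% growth inhibition is given as GI50. TGI: total growth inhibition.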

Legend:
Assay in all cases: NCI tumour cell line growth inhibition, 48 h
CAKI-1 renal = tested on: CAKI-1 renal
HOP-92 NSCLC = tested on: HOP-92 NSCLC
M14 melanoma = tested on: M14 melanoma
NCI-H226 lung = tested on: NCI-H226 lung
NCI-H522 lung = tested on: NCI-H522 lung
OVCAR-3 ovarian = tested on: OVCAR-3 ovarian
OVCAR-5 ovarian = tested on: OVCAR-5 ovarian
RXF 393 renal = tested on: RXF 393 renal
SK-MEL-2 melanoma = tested on: SK-MEL-2 melanoma
SN12C renal = tested on: SN12C renal

Structure (SMILES)	GI50 (CAKI-1 renal)	TGI (CAKI-1 renal)	GI50 (HOP-92 NSCLC)	TGI (HOP-92 NSCLC)	GI50 (M14 melanoma)	TGI (M14 melanoma)	GI50 (NCI-H226 lung)	TGI (NCI-H226 lung)	GI50 (NCI-H522 lung)	TGI (NCI-H522 lung)	GI50 (OVCAR-3 ovarian)	TGI (OVCAR-3 ovarian)	GI50 (OVCAR-5 ovarian)	TGI (OVCAR-5 ovarian)	GI50 (RXF 393 renal)	TGI (RXF 393 renal)	GI50 (SK-MEL-2 melanoma)	TGI (SK-MEL-2 melanoma)	GI50 (SN12C renal)	TGI (SN12C renal)
CCCCCCN(CCCCCC)CCCNc1nccc2ccccc12	1.92 µM	5.33 µM	1.01 µM	2.47 µM	1.42 µM	2.89 µM	1.61 µM	3.5 µM	1.44 µM	3.23 µM	1.73 µM	3.55 µM	1.63 µM	4.3 µM	1.82 µM	5.3 µM	1.8 µM	3.41 µM	2.27 µM	7.36 µM
O=S(=O)(NCCNc1nccc(-c2c(-c3cccc(O)c3)nc3sccn23)n1)c1ccc(F)cc1	3.69 µM	40.5 µM	11.5 µM	57 µM	0.568 µM	16.6 µM	7.03 µM	45 µM	6.44 µM	27.1 µM	8.53 µM	34.5 µM	17.8 µM	64.6 µM	2.44 µM	12.5 µM	4.49 µM	20.2 µM	4.26 µM	44.9 µM
Cc1c2ccccc2c(C)c2c3c(ccc12)C(=O)C=CC3=O	–	46.3 µM	–	32.4 µM	–	> 81.2 µM	–	> 100 µM	–	28 µM	–	38.3 µM	–	> 100 µM	–	27.4 µM	–	> 84.6 µM	–	> 69.1 µM
Cc1cccc(CN(C)c2ccc(CO)c(Cl)c2)c1	3.71 µM	44.3 µM	3.46 µM	28.2 µM	20.6 µM	> 65.9 µM	0.123 µM	0.279 µM	17.6 µM	57.8 µM	4.2 µM	17 µM	0.881 µM	4.87 µM	9.52 µM	27.8 µM	8.54 µM	36 µM	15 µM	48.9 µM
O=C(CCc1nnc2s/c(=C\c3ccccc3)c(=O)n12)Nc1cc(Cl)ccc1Cl	–	> 100 µM	–	> 100 µM	–	> 100 µM	–	> 100 µM	–	> 100 µM	–	> 100 µM	–	> 100 µM	–	> 100 µM	–	> 100 µM	–	> 100 µM
Fc1ccc(-c2nc(-c3nc4ccc(Cl)cc4[nH]3)cc3c2[nH]c2ccccc23)cc1	3.22 µM	24 µM	1.56 µM	6.18 µM	3.05 µM	11.4 µM	3.34 µM	15.5 µM	2.74 µM	12.9 µM	2.74 µM	6.87 µM	6.13 µM	22.1 µM	1.62 µM	4.66 µM	2.76 µM	7.54 µM	3.04 µM	24.4 µM
COc1ccc2c(c1)C(=O)c1c-2n(CCCN=[N+]=[N-])c(=O)c2ccccc12	49.7 µM	> 100 µM	50.7 µM	> 100 µM	75.1 µM	> 100 µM	> 100 µM	> 100 µM	10.8 µM	> 100 µM	52.4 µM	> 100 µM	> 100 µM	> 100 µM	89.8 µM	> 100 µM	46 µM	> 100 µM	> 100 µM	> 100 µM
OC(c1ccccc1)(c1ccccc1)c1ccccn1	–	> 100 µM	–	> 100 µM	–	> 100 µM	–	> 100 µM	–	> 100 µM	–	> 100 µM	–	> 100 µM	–	> 100 µM	–	> 100 µM	–	> 100 µM
C/C(=N/O)C1CC=C(S(=O)(=O)c2ccccc2)C1 (stereo not given)	–	> 100 µM	–	> 100 µM	–	> 100 µM	–	> 100 µM	–	> 100 µM	–	> 100 µM	–	> 100 µM	–	> 100 µM	–	> 100 µM	–	> 100 µM
Oc1nc(NCCc2ccccc2)sc1/C=C1\C=Nc2ncccc21	2.61 µM and 5.34 µM	14 µM and > 100 µM	1.3 µM and 1.43 µM	8.82 µM and 7.62 µM	3.72 µM and 3.49 µM	12.5 µM and 10.4 µM	2.99 µM and 3.27 µM	14.3 µM and 16.1 µM	1.43 µM and 1.39 µM	12.1 µM and 11.6 µM	2.16 µM and 2.06 µM	9.39 µM and 7.33 µM	2.94 µM and 2.93 µM	27.8 µM and 16.9 µM	1.91 µM and 2.53 µM	4.08 µM and 5.72 µM	2.4 µM and 2.94 µM	6.65 µM and 9.08 µM	2.63 µM and 3.92 µM	12.9 µM and 74.1 µM
CC(C)=CC/C=C(/C)[C@H]1CC[C@]2(C)[C@@H]1CC[C@@H]1[C@@]3(C)CCC(=O)NC(C)(C)[C@@H]3CC[C@]12C	19.6 µM	40.3 µM	13.8 µM	28.2 µM	17.8 µM	39.3 µM	19.1 µM	43.1 µM	18.4 µM	40.2 µM	18.3 µM	34.1 µM	19.3 µM	39.5 µM	16.8 µM	32.4 µM	27.6 µM	82.8 µM	16.1 µM	33.8 µM
Cn1cc(-c2csc(-c3c[nH]c4ncccc34)n2)c2cc(Br)cnc21	1.56 µM	> 100 µM	5.03 µM	> 100 µM	4.06 µM	> 100 µM	1.97 µM	> 100 µM	4.86 µM	> 100 µM	2.91 µM	> 100 µM	> 100 µM	> 100 µM	2.05 µM	8.63 µM	19.8 µM	66.7 µM	–	–
COC(=O)[C@]12CC[C@@H](C)[C@H](C)[C@@H]1C1=CC[C@@H]3[C@@]4(C)C[C@@H](OC(=O)c5ccco5)[C@H](O)[C@@](C)(CO)[C@@H]4[C@H](O)C[C@@]3(C)[C@]1(C)CC2	2.99 µM	10.9 µM	2.59 µM	6.19 µM	2.26 µM	4.74 µM	2.3 µM	6.05 µM	1.82 µM	3.96 µM	2.19 µM	4.73 µM	2.13 µM	5.51 µM	1.66 µM	3.34 µM	1.97 µM	4.31 µM	–	–
CC1=C(C(=O)Nc2cccc(C(F)(F)F)c2)C(c2ccc(O)cc2)C(C(=O)Nc2cccc(C(F)(F)F)c2)=C(C)N1	–	59.3 µM	–	39.3 µM	–	35.5 µM	–	44.3 µM	–	34.4 µM	–	31.8 µM	–	72.6 µM	–	36.9 µM	–	34.6 µM	–	–
